From patent US8080644B2, “Oligonucleotide analogues” (Exiqon A/S, priority 1997, dated 2011)
Strand notation (5' to 3'): a small letter for the sugar, then the base; units joined by * are phosphorothioate-linked, units joined directly phosphodiester-linked; [ ] holds rarer units or linkages, { } end groups; capitals alone tell only the bases. V = LNA monomer of structure V, bold; X = bicyclic LNA-type nucleotide of structure X in the publication's (LNA marked in bold); Y = bicyclic LNA-type thymidine monomer of structure Y; l = locked nucleic acid (LNA); d = 2'-deoxy (DNA)

Key:
5′-(AAAAAAAAAAAAAA)-3′ = test: Tm of duplex (spectrophotometric melting curves); assay type: binding; conditions: vs RNA 5′-(AAAAAAAAAAAAAA)-3′; 10 mM Na2HPO4 pH 7.0, 100 mM NaCl, 0.1 mM EDTA
Procedure: (§1) Thermostability of oligonucleotides containing monomers of formula V, X, Y and Z^T, Z^U, Z^G, Z^C, Z^A, Z^MeC. The thermostability of the LNA modified oligonucleotides were determined spectrophotometrically using a spectrophotometer equipped with a thermoregulated Peltier element. Hybridisation mixtures of 1 ml were prepared containing either of 3 different buffers (10 mM Na2HPO4, pH 7.0, 100 mM NaCl, 0.1 mM EDTA; 10 mM Na2HPO4 pH 7.0, 0.1 mM EDTA; 3M tetramethylammoniumchlorid (TMAC), 10 mM Na2HPO4, pH 7.0, 0.1 mM EDTA) and equimolar (1 μM or 1.5 μM) amounts of the different LNA modified oligonucleotides and their complementary or mismatched DNA or RNA oligonucleotides. Identical hybridisation mixtures using the unmodified oligonucleotides were prepared as references. The Tm's were obtained as the first derivative of the melting curves. FIG. 2 illustrates the monomeric LNAs used. The nomenclature V, X, Y and Z^T, Z^U, Z^G, Z^C, Z^A, Z^MeC refer to structures V, X, Y and Z of FIG. 2. In the tables, the nucleobases of the LNA monomers are indicated. Furthermore, for the thio and amino variants of the LNA structure Z of the last two tables, the nomenclature used is, e.g., Z^TS and Z^TNH, respectively.

5′-d(AAAAAAAAAAAAAA)-3′ = test: Tm of duplex (spectrophotometric melting curves); assay type: binding; conditions: vs 5′-d(AAAAAAAAAAAAAA)-3′; 10 mM Na2HPO4 pH 7.0, 100 mM NaCl, 0.1 mM EDTA
Procedure: as §1

[1] = test system: Nras amplicons (Nras 910, Nras 600, Nras 200); test: Capture of Nras PCR amplicons by immobilised probes; assay type: binding, human; conditions: native amplicons; 1 pmol probe per well
Procedure: Three DIG labelled amplicons from Nras sequence (ref.: Nucleic Acid Research, 1985, Vol. 13, No. 14, p 52-55) were generated by PCR amplification as follows:
PCR reaction mixture for Nras amplicons: 2.3 μl human placental genomic DNA (440 ng/μl), 50 μl 10×PCR buffer (without MgCl2 Perkin Elmer), 30 μl 25 mM MgCl2, 50 μl dNTP-mix (2 mM dATP, dCTP, dGTP and 1.8 mM dTTP), 10 μl 1 mM Dig-11-dUTP, 10 μl 25 μM forward primer, 10 μl 25 μM reverse primer, 5 μl 5 U/μl AmpliTaq Gold (Perkin Elmer) and water ad 500 μl. PCR reaction: The above mixture was made for all the Nras PCR products. The only difference being reverse primer 910 bp, 600 bp or 200 bp added once at a time. The PCR mixtures were aliquoted into ten PCR tubes each and cycled in a Perkin Elmer 9600 at the following conditions: 95° C. 3 min; 55° C. 2 min, 72° C. 3 min, 95° C. 1 min (30 cycles); 55° C. 2 min, 72° C. 10 min and 4° C. soak. 10 μl from each PCR reaction was analysed on a standard agarose gel and the expected fragments of approximately 910 bp, 600 bp and 200 bp were observed. Assay conditions: Wells of a streptavidin coated micro-titer plate (Boehringer Mannheim; binding capacity of 20 pmol biotin per well) were incubated for 1 hour in 5×SSCT (0.75 M NaCl, 75 mM citrate, pH 7.0, 0.1% Tween 20) at 37° C. with either 1 pmol of DNA Nras Cap A (biotin-5′-TTCCACAGCACAA-3′) (SEQ ID NO:37), LNA/DNA Nras Cap A (biotin-5′-TTCCACAGCACAA-3′) (SEQ ID NO:38), LNA Nras Cap A (biotin-5′-TTCCACAGCACAA-3′) (SEQ ID NO:39), DNA Nras Cap B (biotin-5′-AGAGCCGATAACA-3′) (SEQ ID NO:40), LNA/DNA Nras Cap B (biotin-5′-AGAGCCGATAACA-3′) (SEQ ID NO:41) or LNA Nras Cap B (biotin-5′-AGAGCCGATAACA-3′) (SEQ ID NO:42); LNA nucleosides in bold. The Nras Cap A capture probes capture amplicons Nras 910, Nras 600 and Nras 200. Nras Cap B capture probes capture specific amplicons Nras 910 and Nras 600. After incubation with the different capture probes, the wells were washed in 5×SSCT and 5 μl native or denatured (95° C. 5 min and 10 min on ice) DIG-labelled amplicons (Nras 910, Nras 600 or Nras 200) in 95 μl 1×SSCT (0.15 M NaCl, 15 mM citrate, pH 7.0, 0.1% Tween 20) were added per well and incubated for 1 hour at 37° C. The wells were washed three times in phosphate buffered saline (1×PBST, 0.15 M Nat, pH 7.2, 0.05% Tween 20) and incubated 30 min at 37° C. with 200 μl peroxidase labelled anti-DIG antibodies (Boehringer Mannheim, diluted 1:1000 in 1×PBST). Finally the wells were washed three times in 1×PBST and assayed for peroxidase activity by adding 100 μl of substrate solution (0.1 M citrate-phosphate buffer pH 5.0, 0.66 mg/ml ortho-phenylenediamine dihydrochloride, 0.012% H2O2) the reaction was stopped after 9 min by adding 100 μl 0.5 M H2SO4 and diluted 4 times in H2SO4 before the absorbance at 492 nm was read in a micro-titer plate reader. […] We conclude that LNA modified oligos containing mixed LNA nucleosides (A, T, G or C LNA nucleosides) function efficiently in sequence specific capture of PCR amplicons when immobilised on a solid surface. We further conclude that LNA offers a means to construct capture probes that will function efficiently in amplicon capture without prior denaturation i.e. capture by strand displacement. This ability facilitates a significant simplification of current amplicon detection formats based on DNA.

| Substance | Tm (° C.) Na2HPO4/NaCl/EDTA (5′-(AAAAAAAAAAAAAA)-3′) [°C] | Tm (° C.) Na2HPO4/NaCl/EDTA (5′-d(AAAAAAAAAAAAAA)-3′) [°C] | capture of specific amplicons without prior denaturation [1] |
| --- | --- | --- | --- |
| 5′-d(TTTTTTTTTTTTTT)-3′ (SEQ ID NO: 107): partly modified poly-T with monomer V (sugars from the 5' end d5 V4 d5, backbone not given here) | 31 | 23 | – |
| 5′-d(TTTTTTTTTTTTTT)-3′ (SEQ ID NO: 101): partly modified poly-T with monomer V (sugars from the 5' end d6 V2 d6, backbone not given here) | 28 | 31 | – |
| 5′-d(TTTTTTTTTTTTTT)-3′ (SEQ ID NO: 110): partly modified poly-T with monomer V (sugars from the 5' end ddddVdVdVdVddd, backbone not given here) | 16 | 23 | – |
| 5′-d(TTTTTTTTTTTTTT)-3′ (SEQ ID NO: 138): partly modified poly-T with monomer Y (sugars from the 5' end d5 Y4 d5, backbone not given here) | 33 | 32 | – |
| 5′-d(TTTTTTTTTTTTTT)-3′ (SEQ ID NO: 123): poly-T containing X^T (sugars from the 5' end d6 X1 d1 X1 d5, backbone not given here) | 15 | 9 | – |
| 5′-d(TTTTTTTTTTTTTT)-3′ (SEQ ID NO: 89): partly modified poly-T oligonucleotide with Z^T (48, 49) (DNA dTdTdTdTdTlTlTlTlTdTdTdTdTdT) | 52 | 42 | – |
| LNA/DNA Nras Cap A: biotin-5′-TTCCACAGCACAA-3′ (SEQ ID NO:38), spiked with 4 LNA nucleosides (LNA nucleosides spiked in, positions not given here, 5' biotin) | – | – | capture the same amplicons with a lower efficiency |
| 5′-d(TTTTTTTTTTTTTT)-3′ (SEQ ID NO: 98): partly modified poly-T with monomer V (sugars from the 5' end d7 V1 d6, backbone not given here) | 27 | 32 | – |
| 5′-d(TTTTTTTTTTTTTT)-3′ (SEQ ID NO: 117): poly-T containing X^T (sugars from the 5' end d7 X1 d6, backbone not given here) | 23 | 23 | – |
| 5′-d(TTTTTTTTTTTTTT)-3′ (SEQ ID NO: 132): partly modified poly-T with monomer Y (sugars from the 5' end d6 Y2 d6, backbone not given here) | 37 | 35 | – |
| 5′-d(TTTTTTTTTTTTTT)-3′ (SEQ ID NO: 135): partly modified poly-T with monomer Y (sugars from the 5' end d6 Y1 d1 Y1 d5, backbone not given here) | 36 | 35 | – |
| 5′-d(TTTTTTTTTTTTTT)-3′ (SEQ ID NO: 120): poly-T containing X^T (sugars from the 5' end d6 X2 d6, backbone not given here) | 23 | 19 | – |
| 5′-d(TTTTTTTTTTTTTT)-3′ (SEQ ID NO: 129): partly modified poly-T with monomer Y (sugars from the 5' end d7 Y1 d6, backbone not given here) | 37 | 36 | – |
| 5′-d(TTTTTTTTTTTTTT)-3′ (SEQ ID NO: 104): partly modified poly-T with monomer V (sugars from the 5' end d6 V1 d1 V1 d5, backbone not given here) | 23 | 30 | – |
| 5′-d(TTTTTTTTTTTTTT)-3′ (SEQ ID NO: 80): unmodified poly-T oligonucleotide (Table 1, 42 and 43) (unmodified DNA) [reference compound] | 32 | 36 | – |
| 5′-d(TTTTTTTTTTTTTT)-3′ (SEQ ID NO: 86): partly modified poly-T oligonucleotide with Z^T (46, 47) (DNA dTdTdTdTdTdTlTlTdTdTdTdTdTdT) | 40 | 34 | – |
| 5′-d(TTTTTTTTTTTTTT)-3′ (SEQ ID NO: 83): partly modified poly-T oligonucleotide with Z^T (44, 45) (DNA dTdTdTdTdTdTlTdTdTdTdTdTdTdT) | 32 | 36 | – |
| 5′-d(TTTTTTTTTTTTTT)-3′ (SEQ ID NO: 141): partly modified poly-T with monomer Y (sugars from the 5' end ddddYdYdYdYddd, backbone not given here) | 36 | 36 | – |
| 5′-d(TTTTTTTTTTTTTT)-3′ (SEQ ID NO: 144): fully modified poly-T oligonucleotide of structure Y (sugars from the 5' end Y13 d1, backbone not given here) | 58 | 58 | – |
| 5′-d(TTTTTTTTTTTTTT)-3′ (SEQ ID NO: 126): poly-T containing X^T (sugars from the 5' end d5 X4 d5, backbone not given here) | 14 | 5 | – |
| 5′-d(TTTTTTTTTTTTTT)-3′ (SEQ ID NO: 92): partly modified poly-T oligonucleotide with Z^T (50, 51) (DNA dTdTdTdTlTdTlTdTlTdTlTdTdTdT) | 53 | 47 | – |
